Test results reported in US4748180A, “β-carboline-3-carboxylic acid derivatives, and their use as psychotropic and anti-epileptic agents” (Schering Aktiengesellschaft, priority 1984, dated 1988).

Legend:
benzodiazepine receptors [1] = test: in vitro inhibition of 3H-flunitrazepam binding (displacement test, brain membrane suspension); set-up: unit not given here; details: 3H-flunitrazepam 1.0 nM, 0° C., rat forebrain, pH 7.1
benzodiazepine receptors [2] = test: in vivo inhibition of 3H-flunitrazepam binding (forebrain membranes of injected mice); details: usually subcutaneously, 3H-flunitrazepam i.v. 15 minutes later, killed after a further 20 minutes
Method: The ED50 value represents the dose (mg/kg) of a test substance which causes the specific binding of flunitrazepam to benzodiazepine receptors in a living brain to be reduced to 50% of the control value. Such an in vivo test is carried out as follows:
Groups of mice are injected with the test substance of different doses and usually subcutaneously. 15 minutes later ^3 H-flunitrazepam is administered intravenously to the mice, and after a further 20 minutes, the mice are killed. Their forebrain membranes are removed and the radioactivity of these forebrain membranes is measured by scintillation counting. The ED50 value is determined from dose-response curves.

Row | SMILES | Inhibition of H^3flunitrazepam binding in vitro IC50 (benzodiazepine receptors [1]) | Inhibition of H^3flunitrazepam binding in vivo ED50 (benzodiazepine receptors [2])
1 | CCOC(=O)c1ncc2[nH]c3cccc(OC(C)C)c3c2c1COC | 0.6 | 1.4 mg/kg
2 | CCOC(=O)c1ncc2[nH]c3cccc(OC4CCC4)c3c2c1COC | 0.2 | 0.5 mg/kg
3 | CCOCc1cccc2[nH]c3cnc(C(=O)OCC)c(COC)c3c12 [Example 1, 5-ethoxymethyl-4-methoxymethyl-β-carboline-3-carboxylic acid ethylester] | 0.4 | 2.4 mg/kg
